# Test results as given in patent publication US6403645B2, “Antidepressant effect of norepinephrine uptake 2 inhibitors and combined medications including them” (President and Fellows of Harvard College, priority 2000, dated 2002).
# Assay: Urinary levels of norepinephrine and normetanephrine in depressed patients treated with desipramine
# Format: in vivo
# From the text: (Plasma levels of normetanephrine were not measured in these studies.)
# [1] = by the fourth week of treatment
smiles,measurement,setting,value
CNCCCN1c2ccccc2CCc2ccccc21 [desipramine],urinary levels of norepinephrine,after one week of treatment,small decreases
same,urinary levels of normetanephrine,after one week of treatment,small decreases
same,urinary levels of norepinephrine,[1],statistically significant increases
same,urinary levels of normetanephrine,[1],statistically significant increases
